Reference: ChEMBL document CHEMBL1154198, “Chemical genetics of Plasmodium falciparum” (Nature, 2010)
pEC50: −log10 of the molar value.

How the values were obtained:
Plasmodium falciparum [1] = assay: ST_JUDE: Plasmodium falciparum K1 EC50 (uM) as measured by SYBR green dye; type: functional, organism-based
Plasmodium falciparum [2] = assay: ST_JUDE: Plasmodium falciparum 3D7 EC50 (uM) as measured by SYBR green dye; type: functional, organism-based

Structure (SMILES)	pEC50 (Plasmodium falciparum [1])	pEC50 (Plasmodium falciparum [2])
CC[n+]1c(/C=C/c2ccc(N(C)C)cc2)sc2cc(NC(C)=O)ccc21	5.36	5.48
COc1cccc(NC(=O)Cn2c(C)c(C(=O)C(F)(F)F)c3ccccc32)c1	5.79	< 4.82
CCOC(=O)c1c(CN(CC)CC)n(-c2ccccc2)c2cc(Br)c(O)cc12	5.46	5.75
CCCCN(CCCC)C(=O)Cn1ccc(=N)c2ccccc21	< 4.82	< 4.82
COc1cccc(C(=O)NCc2nnc(S)n2-c2ccc(Cl)c(Cl)c2)c1	7.33	7.03
COc1cc(Cl)c(C)cc1NC(=O)C1c2ccccc2C(=O)N(CC(C)C)C1c1cccs1 (configuration not stated)	6.65	6.78
C=CC[n+]1c(C=C2C=CC=CN2C)sc2ccccc21	6.06	5.82
Cc1onc(-c2ccccc2Cl)c1C(=O)Nc1cc(Cl)ccc1Cl	< 4.82	< 4.82
NNC(=O)CNC(c1ccccc1)c1cc(Br)ccc1NC(=O)c1ccccc1Br (configuration not stated)	5.78	5.72
CC[N+](CC)(CC)CCCOC1CC(C)CCC1C(C)C (configuration not stated)	5.33	< 4.82
O=S(=O)(NCC(c1cccnc1)N1CCN(c2ccc(F)cc2)CC1)c1ccc(Cl)cc1 (configuration not stated)	< 4.82	< 4.82
Cc1cccc(NC(c2ccc(Br)cc2)c2ccc3cccnc3c2O)n1 (configuration not stated)	5.45	5.71
CCOc1ccccc1NC(=S)N1CCN(c2ccc(OC)cc2)C(C)C1 (configuration not stated)	5.37	5.55
CSCCC(=O)N(C)C(Cc1ccc(F)cc1)C1CCN(C(=O)c2cc3ccccc3n2C)CC1 (configuration not stated)	< 4.82	< 4.82
O=C(c1ccco1)N(Cc1cccnc1)c1nc2ccc(F)cc2s1	< 4.82	< 4.82
C#CCOc1cc(Br)c(C2CC(=O)Nc3ccc4ccccc4c32)cc1OC (configuration not stated)	5.53	5.40
CCN1/C(=C/c2sc3ccccc3[n+]2CCO)C=Cc2cc(OC)ccc21	6.24	5.97
CN(C)CCCNC(=O)c1cc(-c2ccc(Cl)s2)nc2ccccc12	< 4.82	< 4.82
COCCn1/c(=N/C(=O)c2nc3ccccc3s2)sc2cc(S(C)(=O)=O)ccc21	< 4.82	< 4.82
CN1C(=O)/C(=C\c2cccc(Cl)c2)Sc2ccc(C(=O)NC3CCN(Cc4ccccc4)CC3)cc21	< 4.82	6.18
CCOC(=O)c1c(N)n(-c2ccc(F)cc2)c2nc3ccccc3nc12	< 4.82	5.61
CC(=O)N(C1=C(N2CCOCC2)C(=O)c2ccccc2C1=O)c1ccc(C(=O)O)cc1	5.58	< 4.82

Structure (SMILES)	pEC50 (Plasmodium falciparum [1])	pEC50 (Plasmodium falciparum [2])
Cc1cn2c(nc3c2c(=O)n(Cc2ccc(Br)cc2)c(=O)n3C)o1	< 4.82	< 4.82
COc1ccc(NC2=C(N3CCOCC3)C(=O)c3ccccc3C2=O)cc1	6.54	< 4.82
CN1CCN(c2nc(Nc3cccc(Cl)c3)c3cnn(-c4ccccc4)c3n2)CC1	5.34	5.41
O=[N+]([O-])c1ccc(NC(c2ccccn2)c2ccc3cccnc3c2O)cc1 (configuration not stated)	5.64	5.32
Cc1ccc(NC(=O)Nc2cccc(Cl)c2)cc1F	< 4.82	< 4.82
C[n+]1ccccc1-c1nc2ccccc2s1	5.24	< 4.82
CCCN(CCC)CCCNC(=O)c1ccc2c(Cl)c3c(nc2c1)CCCC3	< 4.82	< 4.82
CC(C)(C)c1ccc(C(=O)CC(=O)c2cc(Cl)ccc2O)cc1	< 4.82	< 4.82
CC(C)Cc1ccc(S(=O)(=O)N2c3ccccc3CC2C)cc1 (configuration not stated)	< 4.82	< 4.82
Oc1cccc(/C=C/c2ccc3cccc(O)c3n2)c1	5.23	< 4.82
CC(=O)NC(c1ccccc1)c1cc(Cl)c2cccnc2c1O (configuration not stated)	< 4.82	< 4.82
O=C1CC(O)(C(F)(F)C(F)(F)OC(F)(F)F)Oc2ccc(Cl)cc21 (configuration not stated)	< 4.82	< 4.82
CCc1ccc(OCC2c3cc(OC)c(OC)cc3CCN2C(=O)COc2ccccc2)cc1 (configuration not stated)	< 4.82	< 4.82
CCN(CC)c1ccc(/C=N\Nc2ncc(F)c(N3CCOCC3)n2)c(O)c1	5.77	5.82
Cc1ccc(Cn2c(=O)c3ccccc3n3c(CCC(=O)N4CCC(C(N)=O)CC4)nnc23)cc1	< 4.82	< 4.82
Cc1ccc([N+](=O)[O-])cc1NC(=O)c1cc2ccccc2cc1O	6.08	6.08
COc1ccc(C2(O)C[N+](c3ccc(C)cc3)=C3SCCCN32)c(F)c1 (configuration not stated)	< 4.82	< 4.82
CCCOc1ccc(-c2nonc2NC(=O)c2cccc(OCC)c2)cc1OCCC	6.35	< 4.82
Cc1cccc(-n2c(N)c(C#N)c3nc4ccccc4nc32)c1	< 4.82	5.38
O=C(C1CCCCC1)N(Cc1cccnc1)c1nc2ccc(F)cc2s1	5.47	< 4.82
N#Cc1ccc(C(=O)N(Cc2cccnc2)c2nc3c(F)cccc3s2)cc1	< 4.82	< 4.82
CCc1ccc(S(=O)(=O)/N=C2/C=C(Sc3nc[nH]n3)C(=O)c3ccccc32)cc1	5.16	5.32

Structure (SMILES)	pEC50 (Plasmodium falciparum [1])	pEC50 (Plasmodium falciparum [2])
Cc1cccc2nc(Cn3c(=O)n(Cc4ccc5c(c4)OCO5)c(=O)c4ccc(C(=O)NC5CCCCC5)cc43)cc(=O)n12	< 4.82	< 4.82
CC[n+]1cccc2cc(OC)ccc21	< 4.82	< 4.82
C/C(Cl)=C\C[N+]1(C/C=C(\C)Cl)CCCCC1	< 4.82	< 4.82
CCc1cc2c(=O)c(-c3ccc(OC(C)C)cc3)coc2cc1OC(C)=O	5.37	< 4.82
CCOCC(=O)Nc1ccc(S(=O)(=O)N2CCC(c3nc4ccccc4[nH]3)CC2)cc1	< 4.82	< 4.82
Cc1cc(C)c[n+](C(C)C(=O)c2ccc(-c3ccccc3)cc2)c1 (configuration not stated)	5.60	5.54
COc1ccc(C2C(C(=O)Nc3cnc4ccccc4c3)c3ccccc3C(=O)N2C2CCCCC2)cc1 (configuration not stated)	5.47	5.79
COC(=O)c1cc(NS(=O)(=O)c2ccccc2[N+](=O)[O-])cc(C(=O)OC)c1	< 4.82	< 4.82
COc1cc(NC(=O)N2CCn3cccc3C2c2ccc(F)cc2)cc(OC)c1OC (configuration not stated)	5.43	5.38
COc1cc(CNCCc2ccc(Cl)cc2)cc(OC)c1O	< 4.82	5.16
Cc1ccc(-c2nc(-c3ccc(Cl)cc3)no2)cc1	< 4.82	< 4.82
CC(Sc1ccc(Cl)cc1)C(=O)Nc1ccc(Br)cc1F (configuration not stated)	< 4.82	< 4.82
CCOC(=O)c1cnc2c(C)cccc2c1NCCCN1CCOCC1	5.84	6.19
CCOc1cccc2sc(N(Cc3cccnc3)C(=O)c3ccccc3[N+](=O)[O-])nc12	< 4.82	5.27
CCN(CC)CCNC(=O)c1ccc2c(c1)sc1nc(-c3ccc(C)cc3)cn12	5.32	5.78
Cc1ccccc1CN1C(=O)CSc2ccc(C(=O)NCCC(C)C)cc21	< 4.82	< 4.82
O=[N+]([O-])c1ccc(NC(=S)Nc2cc(C(F)(F)F)cc(C(F)(F)F)c2)cc1	6.20	5.79
Cc1cccc2sc(N(Cc3cccnc3)C(=O)c3ccc(C#N)cc3)nc12	5.51	< 4.82
COC(=O)c1c(N)n(-c2ccc(F)cc2F)c2nc3ccccc3nc12	5.40	6.07
CCCCNc1nc(Nc2cccc(C)c2)c2cnn(-c3ccccc3)c2n1	5.10	< 4.82
CC(C)(O)C#Cc1ccc([C@@H]2C[C@H]3CN(Cc4cccc(Cl)c4)C(=O)[C@]34CCCN24)cc1	5.24	5.33
COc1ccccc1Cn1ccnc1SCC(=O)Nc1cc(C)ccc1C	< 4.82	5.71

Structure (SMILES)	pEC50 (Plasmodium falciparum [1])	pEC50 (Plasmodium falciparum [2])
COc1cc(C(NC(=O)CCl)NC(=O)CCl)ccc1OCC(C)C	5.44	5.25
Cc1c(Cl)c(C(F)(F)F)nn1CC(=O)Nc1cccc(C(F)(F)F)c1	5.35	< 4.82
CCCCCCC(O)(c1ccc(F)cc1)C(CN1CCOCC1)c1ccccc1 (configuration not stated)	5.66	5.50
C=CCN1C(=O)c2[nH]nc(-c3c(C)cc(C)cc3O)c2C1c1cccc(OC)c1 (configuration not stated)	5.85	5.62
O=C(COc1ccc(Cl)cc1)N1CCN(Cc2cccc([N+](=O)[O-])c2)CC1	< 4.82	< 4.82
CCOc1cc(C2C3=C(O)CC(c4ccc(OC)cc4)CC3=NC(C)=C2C(=O)OC)ccc1O (configuration not stated)	5.27	< 4.82
O=C(CSc1ccccc1[N+](=O)[O-])Nc1cccc(Br)c1	< 4.82	< 4.82
COc1ccc(-c2nn(C)c3sc(C(=O)Nc4cccc(C(F)(F)F)c4)cc23)cc1OC	< 4.82	< 4.82
Cc1ccc(-c2n(C)c3ccccc3[n+]2C)cc1	< 4.82	4.92
CCc1n(CC(O)COc2ccccc2OC)c2ccccc2[n+]1CC (configuration not stated)	< 4.82	< 4.82
CCCCCOc1ccc(NC2=C(N3CCCCC3)C(=O)c3ccccc3C2=O)cc1	7.24	7.16
CCCCN(CCCC)CC1OCc2ccccc2CO1	< 4.82	< 4.82
CC(=O)c1ccc(Oc2c(F)c(F)nc(F)c2F)cc1	< 4.82	< 4.82
COc1ccc(N2C(=O)/C(=C/Nc3ccc(F)cc3)c3ccccc3C2=O)cc1	< 4.82	< 4.82
CCC(=O)NC(c1ccccc1Cl)c1ccc2cccnc2c1O (configuration not stated)	5.54	5.66
C=CCN(CC=C)CCN1CCN(C(=O)Nc2cc(C(F)(F)F)cc(C(F)(F)F)c2)CC1	6.27	6.15
CCCCCn1c(=O)c2c(nc3n(-c4ccccc4OCC)c(C)cn23)n(C)c1=O	< 4.82	< 4.82
C=CCN1C(=O)c2[nH]nc(-c3c(C)cc(C)cc3O)c2C1c1ccc(OCC)cc1 (configuration not stated)	5.76	5.56
CC1(C)CC(=O)C2=C(C1)OC(N)=C(C#N)C2c1ccc(F)cc1F (configuration not stated)	< 4.82	< 4.82
CCCCCCn1c(N)c(C(=O)OC)c2nc3ccccc3nc21	< 4.82	< 4.82
